This note sets out measurements from PubChem BioAssay (NCI).

Among the test systems are SN12C renal; IGROV1 ovarian; KM12 colon; PC-3 prostate; HCT-116 colon; HOP-62 NSCLC; SF-539 CNS; OVCAR-5 ovarian; HS 578T breast; NCI-H522 lung.
What all share (assay): DTP human tumour cell line panel, 48 h

Each structure is given as a SMILES string. Several values for one entry are separate records, joined by “and”; a condition that tells them apart may be missing. Equal values may be shown once.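 Assay format: 96-well plates, 48-hour exposure. GI50 = concentration required for 50% inhibition of growth. TGI denotes the concentration required for complete inhibition of growth.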

The term TGI denotes the concentration giving total growth inhibition. A high value points to lower sensitivity of the cells. Take `CCc1ncc(CO)n1Cc1cccc2ccccc12`: the TGI with SN12C renal, with IGROV1 ovarian, in the assay on KM12 colon, in the assay on PC-3 prostate, in the assay with HCT-116 colon and in the assay on HOP-62 NSCLC was > 100 µM in each case. Moreover, the TGI in the assay with SF-539 CNS, with OVCAR-5 ovarian, with HS 578T breast and in the assay on NCI-H522 lung was > 100 µM each time.

As usually defined, the GI50 is the concentration that inhibits growth by half. As for `CCOc1ccc2c(c1)C(=O)c1c-2n(CCCN=[N+]=[N-])c(=O)c2cc([N+](=O)[O-])ccc12`, the GI50 in the assay with SN12C renal was 5.3 µM; with IGROV1 ovarian, 0.195 µM; with KM12 colon, 23.9 µM; in the assay with PC-3 prostate it was 15.1 µM; with HCT-116 colon, 1.82 µM; with HOP-62 NSCLC, 3 µM. Moreover, the GI50 is 3.88 µM in the assay with SF-539 CNS, 6.07 µM in the assay with OVCAR-5 ovarian, 45.9 µM in the assay with HS 578T breast and 3.58 µM in the assay with NCI-H522 lung. Moreover, the TGI with SN12C renal is > 100 µM; in the assay on IGROV1 ovarian, 16.1 µM; in the assay on KM12 colon, > 100 µM; in the assay with PC-3 prostate, > 100 µM; with HCT-116 colon, > 100 µM; with HOP-62 NSCLC, 43.6 µM. For the same compound, the TGI in the assay on SF-539 CNS is 19 µM; in the assay on OVCAR-5 ovarian, > 100 µM; in the assay on HS 578T breast, > 100 µM; with NCI-H522 lung it was 25.8 µM.

Regarding `CN1CCN(CCC=C2c3ccccc3Sc3ccc(S(=O)(=O)N(C)C)cc32)CC1`, the GI50 was 6.23 µM and 13.8 µM with SN12C renal; 5.13 µM and 8.26 µM in the assay with IGROV1 ovarian; 3.96 µM and 4.68 µM in the assay with KM12 colon; 3.7 µM and 7.99 µM in the assay with PC-3 prostate; 3 µM and 3.35 µM in the assay with HCT-116 colon; 5.73 µM and 14.6 µM in the assay on HOP-62 NSCLC. In addition, the GI50 is 10.9 µM and 14.8 µM in the assay on OVCAR-5 ovarian; 3.4 µM and 3 µM with HS 578T breast; 1.87 µM and 8.15 µM in the assay on NCI-H522 lung. The concentration for total growth inhibition (TGI) was 34.6 µM and > 49.3 µM in the assay with SN12C renal; 23.3 µM and 25.7 µM in the assay with IGROV1 ovarian; 24.3 µM and 16.4 µM in the assay with KM12 colon; 32.5 µM and > 43.1 µM with PC-3 prostate; > 100 µM and 23.8 µM with HCT-116 colon; 23.3 µM and 33 µM with HOP-62 NSCLC. In addition, the TGI in the assay with OVCAR-5 ovarian was 38.8 µM and 30 µM; in the assay with HS 578T breast, 23.2 µM and 14.8 µM; in the assay on NCI-H522 lung it was 3.83 µM and 28.1 µM.

In the case of `CC(C)C1=CC2=C(C(=O)C1=O)C13CCCC(C)(C)C1CC2OC3=O` (stereo not given), the total growth inhibition concentration (TGI) in the assay on SN12C renal is 43.6 µM; in the assay with IGROV1 ovarian it was 32.2 µM; with KM12 colon it was > 100 µM; with PC-3 prostate, 63.2 µM; with HCT-116 colon, 33.2 µM; in the assay on SF-539 CNS, 46.3 µM. The total growth inhibition concentration (TGI) was 59.7 µM in the assay with OVCAR-5 ovarian, > 100 µM in the assay on HS 578T breast and 30.6 µM with NCI-H522 lung.

On to `Cc1[nH]nc(C(=O)N/N=C/c2ccccc2Cl)c1N=NN(C)C`, for which the TGI in the assay with SN12C renal was > 100 µM; in the assay on IGROV1 ovarian, > 100 µM; in the assay with KM12 colon, > 100 µM; with PC-3 prostate, > 100 µM; in the assay with HCT-116 colon, > 100 µM; with SF-539 CNS, > 29.9 µM. In addition, the TGI is > 100 µM with OVCAR-5 ovarian, > 61.9 µM in the assay with HS 578T breast and > 100 µM with NCI-H522 lung.

On to `C[C@]12CC[C@H]3[C@@H](CC[C@]4(O)C[C@@H](O[C@@H]5O[C@H](CO)[C@@H](O[C@@H]6OC[C@@H](O)[C@H](O)[C@H]6O)[C@H](O)[C@H]5O)CC[C@]34C=O)[C@@]1(O)CC[C@@H]2C1=CC(=O)OC1`, for which the GI50 with SN12C renal is 0.414 µM; in the assay on IGROV1 ovarian, 1.84 µM; with KM12 colon, 1.98 µM; with PC-3 prostate it was 0.78 µM; in the assay with HCT-116 colon, 1.47 µM; with HOP-62 NSCLC, 0.702 µM. The GI50 with SF-539 CNS is 0.853 µM; in the assay on OVCAR-5 ovarian, 1.77 µM; in the assay on HS 578T breast it was 0.845 µM; with NCI-H522 lung, 0.237 µM. For the same compound, the TGI in the assay with SN12C renal worked out at 2.49 µM; with IGROV1 ovarian, 17.6 µM; with KM12 colon it was 8.23 µM; with PC-3 prostate, 3.57 µM; with HCT-116 colon it was 5.77 µM; in the assay with HOP-62 NSCLC, 3 µM. In addition, the TGI in the assay on SF-539 CNS was found to be 1.84 µM; in the assay with OVCAR-5 ovarian, 6.32 µM; in the assay on HS 578T breast it was 4.31 µM; in the assay with NCI-H522 lung it was 1.51 µM.

For the compound `Cc1c(Cl)c(C)c(Cl)c(O)c1Cl`, the TGI in the assay with SN12C renal is > 100 µM; with IGROV1 ovarian, > 100 µM; in the assay with KM12 colon, > 100 µM; with PC-3 prostate it was 63.9 µM; with HCT-116 colon it was 39.6 µM; in the assay with HOP-62 NSCLC, > 100 µM. In addition, the TGI in the assay on SF-539 CNS is > 100 µM; in the assay on OVCAR-5 ovarian, > 100 µM; with HS 578T breast, 61.2 µM; with NCI-H522 lung, 50.7 µM.

`COc1ncc(-c2ccc3nccc(C#CCCCCC(=O)NO)c3c2)cc1NS(=O)(=O)c1ccc(F)cc1F`: the TGI came to 17.5 µM in the assay on SN12C renal; 0.559 µM in the assay with IGROV1 ovarian; 12.1 µM with KM12 colon; 4.8 µM in the assay with PC-3 prostate; 2.8 µM in the assay with HCT-116 colon; 10 µM in the assay with HOP-62 NSCLC. Moreover, the TGI was determined as 1.34 µM in the assay on SF-539 CNS, 8.2 µM in the assay on OVCAR-5 ovarian, 1.17 µM in the assay with HS 578T breast and 2.31 µM with NCI-H522 lung. Further, the GI50 in the assay with IGROV1 ovarian was < 0.0146 µM; in the assay with KM12 colon, 0.18 µM; in the assay on PC-3 prostate, 0.0545 µM; in the assay with HCT-116 colon it was 0.123 µM; in the assay with HOP-62 NSCLC, 0.125 µM; in the assay with SF-539 CNS, 0.0689 µM. The GI50 in the assay with OVCAR-5 ovarian was 0.0634 µM; in the assay on HS 578T breast it was 0.0307 µM; in the assay with NCI-H522 lung, 0.0929 µM.

As to `CC/C(=C(/c1ccc(OCCN(C)C)cc1)c1ccc(OC(=O)CCCCCCCCC(=O)c2c(C)[nH]c(/C=C3\N=C(c4ccc[nH]4)C=C3OC)c2C)cc1)c1ccccc1`, the GI50 in the assay with SN12C renal is 7.55 µM; with IGROV1 ovarian, 23.1 µM; with KM12 colon, 5.25 µM; in the assay on PC-3 prostate, 5.86 µM; in the assay with HCT-116 colon, 3.36 µM; with HOP-62 NSCLC, 17 µM. For the same compound, the GI50 is 10.7 µM with SF-539 CNS, > 100 µM with OVCAR-5 ovarian, 4.74 µM in the assay with HS 578T breast and 21.2 µM in the assay on NCI-H522 lung. Further, the TGI in the assay with SN12C renal is > 100 µM; with IGROV1 ovarian, > 100 µM; in the assay with KM12 colon it was > 100 µM; with PC-3 prostate, > 100 µM; with HCT-116 colon, 21.8 µM; in the assay with HOP-62 NSCLC, > 100 µM. Moreover, the TGI was 61.6 µM with SF-539 CNS, > 100 µM with OVCAR-5 ovarian, 85 µM in the assay with HS 578T breast and > 100 µM in the assay on NCI-H522 lung.
